Laboratory results: patent US12325697B2 (Nimbus Clio, Inc., priority 2021, dated 2025)

Biological target: Recombinant human Cbl-b (aa 36-427) (Homo sapiens (Human), UniProt Q13191)
Experiment: Cbl-b Biochemical Assay (TR-FRET)
Conditions: read-out: TR-FRET hCbl-b IC50
Experimental: Recombinant human Cbl-b (aa 36-427) was expressed in E. coli, purified and biotinylated in vitro. The protein was diluted to 12 nM in freshly prepared assay buffer consisting of 50 mM HEPES, pH 7.0, 100 mM NaCl, 5 mM MgCl2, 0.01% Triton-X 100, 0.01% BSA and 1 mM DTT. Recombinant human Src (aa 254-536)-[…]-Zap-70 (aa 281-297) fusion protein was expressed in E. coli and purified. Protein was diluted in assay buffer to 2-5 nM and supplemented with ATP to 1 mM. Fluorescein-BODIPY labeled UBE[…]([…])-Ub was prepared by conjugating ubiquitin (Ub) labeled at its N-terminus with Fluorescein-BODIPY maleimide (ThermoFisher Catalog no B10250) to E. coli expressed and purified UBE[…]([…]) [see Dou et al Nature Structural and Molecular Biology 8: 982-987, 2013]. Recombinant human UBE2D2([…]) was expressed in E. coli, purified and ubiquitinated and Bodipy labelled in vitro. Protein was diluted to 200 nM in assay buffer without MgCl2 (or Cisbio PPI buffer). Streptavidin-Terbium was added to 2 nM and EDTA to 10 mM, to provide a binding assay mix. Compounds were dissolved in DMSO and diluted to prepare a ten-point dilution series. 100 nl of each compound concentration was dispensed in duplicate in a 384 well black assay plate using acoustic dispensing. Wells for maximum signal controls received 100 nl of DMSO only and wells for minimum signal controls received 100 nl of a reference inhibitor compound at a final assay concentration of […] to produce 100% inhibition. 5 μl of diluted Cbl-b enzyme was added to all wells of the assay plate and incubated at RT for 30-60 min. The enzyme assay was initiated by addition of 5 μl of Src-Zap/ATP mix to all wells, and the plate incubated at RT for 60 min. The enzyme reaction was terminated and the binding reaction was initiated by adding 10 μl of binding assay mix to all wells and incubating the plate at RT for 60 min prior to assay read. Final assay conditions consisted of 6 nM Cbl-b, 1-2.5 nM Src-Zap70, 0.5 mM ATP, 1% (v/v) DMSO (enzyme reaction) and 100 nM UBE2D2([…])-Ub-FL-BODIPY, 5 mM EDTA, 1 nM Streptavidin-Tb (binding reaction). The HTRF assay signal was measured at 520 nm on an Envision plate reader, with reference signal at 485 or 620 nm. Data was normalized using maximum and minimum assay controls: % Inhibition=100-(100*((maximum control)-unknown)/(maximum control-minimum control)). A 4-parameter dose-response equation was used to fit the normalized dose-response data and derive an IC50 for test compounds.

Recombinant human Cbl-b (aa 36-427), sequence (Q13191 36-427): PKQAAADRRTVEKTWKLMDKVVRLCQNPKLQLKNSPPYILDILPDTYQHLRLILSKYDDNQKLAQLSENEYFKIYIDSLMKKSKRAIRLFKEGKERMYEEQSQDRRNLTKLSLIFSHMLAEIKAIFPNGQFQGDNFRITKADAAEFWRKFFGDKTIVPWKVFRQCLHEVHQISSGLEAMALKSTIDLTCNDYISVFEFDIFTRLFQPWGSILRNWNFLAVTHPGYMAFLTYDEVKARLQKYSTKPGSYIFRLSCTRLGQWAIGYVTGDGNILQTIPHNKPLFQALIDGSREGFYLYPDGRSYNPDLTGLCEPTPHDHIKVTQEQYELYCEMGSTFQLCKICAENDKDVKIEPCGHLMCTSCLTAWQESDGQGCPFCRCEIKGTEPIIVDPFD

Row | SMILES | IC50 [nM]
1 | Cn1cnnc1-c1cc(C(N)=O)ccc1-c1cccc(N2Cc3c(cccc3C(F)(F)F)C2=O)c1 [ACD-1, 2-(4-Methyl-4H-1,2,4-triazol-3-yl)-3′-(1-oxo-4-(trifluoromethyl)isoindolin-2-yl)-[1,1′-biphenyl]-4-carboxamide] | 1000 to 10000
2 | CCNc1cc(-c2c(-c3nncn3C)cnn2C)cc(N2Cc3c(cc(CN4CCC[C@@H](C)C4)cc3C(F)(F)F)C2=O)n1 [ACE-1, (R)-2-(6-(Ethylamino)-4-(1-methyl-4-(4-methyl-4H-1,2,4-triazol-3-yl)-1H-pyrazol-5-yl)pyridin-2-yl)-6-((3-methylpiperidin-1-yl)methyl)-4-(trifluoromethyl) isoindolin-1-one] | ≤ 200
3 | CCNc1cc(-c2c(-c3nncn3C)cnn2C)cc(N2Cc3c(cc(CN4CCC[C@H](C)C4)cc3C(F)(F)F)C2=O)n1 [ACF-1, (S)-2-(6-(Ethylamino)-4-(1-methyl-4-(4-methyl-4H-1,2,4-triazol-3-yl)-1H-pyrazol-5-yl)pyridin-2-yl)-6-((3-methylpiperidin-1-yl)methyl)-4-(trifluoromethyl)isoindolin-1-one] | ≤ 200
4 | CCNc1cc(-c2c(-c3nncn3C)cnn2C)cc(N2Cc3c(cc(CN)cc3C(F)(F)F)C2=O)n1 [ACG-3, 6-(Aminomethyl)-2-(6-(ethylamino)-4-(1-methyl-4-(4-methyl-4H-1,2,4-triazol-3-yl)-1H-pyrazol-5-yl)pyridin-2-yl)-4-(trifluoromethyl)isoindolin-1-one] | ≤ 200
5 | CCNc1cc(-c2c(-c3nncn3C)cnn2C)cc(N2Cc3c(cc(CO)cc3C(F)(F)F)C2=O)n1 [ACH-1, 2-(6-(Ethylamino)-4-(1-methyl-4-(4-methyl-4H-1,2,4-triazol-3-yl)-1H-pyrazol-5-yl)pyridin-2-yl)-6-(hydroxymethyl)-4-(trifluoromethyl)isoindolin-1-one] | ≤ 200
6 | CCNc1cc(-c2c(-c3nncn3C)cnn2C)cc(N2Cc3c(cc(CNCCO)cc3C(F)(F)F)C2=O)n1 [ACI-1, 2-(6-(Ethylamino)-4-(1-methyl-4-(4-methyl-4H-1,2,4-triazol-3-yl)-1H-pyrazol-5-yl)pyridin-2-yl)-6-(((2-hydroxyethyl)amino)methyl)-4-(trifluoromethyl)isoindolin-1-one] | ≤ 200
7 | COC(=O)C1(c2cc(-c3ccccc3-c3nncn3C)cc(N3Cc4c(cccc4C(F)(F)F)C3=O)n2)CC1 [ACJ-6, Methyl 1-(4-(2-(4-methyl-4H-1,2,4-triazol-3-yl)phenyl)-6-(1-oxo-4-(trifluoromethyl)isoindolin-2-yl)pyridin-2-yl) cyclopropane-1-carboxylate] | 10000 to 50000
8 | Cn1cnnc1-c1ccccc1-c1cc(C2CC2)nc(N2Cc3c(cc(CO)cc3C(F)(F)F)C2=O)c1 [ACK-3, 2-(6-Cyclopropyl-4-(2-(4-methyl-4H-1,2,4-triazol-3-yl)phenyl)pyridin-2-yl)-6-(hydroxymethyl)-4-(trifluoromethyl)isoindolin-1-one] | ≤ 200
9 | Cn1cnnc1-c1ccccc1-c1cc(C2CC2)nc(N2Cc3c(cc(CN4CCC5(CC5)C4)cc3C(F)(F)F)C2=O)c1 [ACL-1, 6-((5-Azaspiro [2.4]heptan-5-yl)methyl)-2-(6-cyclopropyl-4-(2-(4-methyl-4H-1,2,4-triazol-3-yl)phenyl)pyridin-2-yl)-4-(trifluoromethyl)isoindolin-1-one] | ≤ 200
10 | CCNc1cc(-c2ccc(F)cc2-c2nncn2C)cc(N2Cc3c(cccc3C(F)(F)F)C2=O)n1 [ACM-8, 2-(6-(Ethylamino)-4-(4-fluoro-2-(4-methyl-4H-1,2,4-triazol-3-yl)phenyl)pyridin-2-yl)-4-(trifluoromethyl)isoindolin-1-one] | ≤ 200
11 | CCNc1cc(-c2c(-c3nncn3C)cnn2C)cc(N2Cc3c(cc(OCCN4CCCC4)cc3C(F)(F)F)C2=O)n1 [ACN-5, 2-(6-(Ethylamino)-4-(1-methyl-4-(4-methyl-4H-1,2,4-triazol-3-yl)-1H-pyrazol-5-yl)pyridin-2-yl)-6-(2-(pyrrolidin-1-yl)ethoxy)-4-(trifluoromethyl)isoindolin-1-one] | ≤ 200
12 | CCNc1cc(-c2c(-c3nncn3C)cnn2C)cc(N2Cc3c(cccc3C(F)(F)F)C2=O)n1 [ACO-1, 2-(6-(Ethylamino)-4-(1-methyl-4-(4-methyl-4H-1,2,4-triazol-3-yl)-1H-pyrazol-5-yl)pyridin-2-yl)-4-(trifluoromethyl)isoindolin-1-one] | ≤ 200
13 | CCNc1cc(-c2c(-c3nncn3C)cnn2C)cc(N2Cc3c(cc(O)cc3C(F)(F)F)C2=O)n1 [ACQ-7, 2-(6-(Ethylamino)-4-(1-methyl-4-(4-methyl-4H-1,2,4-triazol-3-yl)-1H-pyrazol-5-yl)pyridin-2-yl)-6-hydroxy-4-(trifluoromethyl)isoindolin-1-one] | ≤ 200
14 | CCNc1cc(-c2ccc(Cl)cc2-c2nncn2C)cc(N2Cc3c(cccc3C(F)(F)F)C2=O)n1 [ACR-7, 2-(4-(4-Chloro-2-(4-methyl-4H-1,2,4-triazol-3-yl)phenyl)-6-(ethylamino)pyridin-2-yl)-4-(trifluoromethyl)isoindolin-1-one] | ≤ 200
15 | CCNc1cc(-c2c(-c3nncn3C)cnn2C)cc(N2Cc3c(cc(C(=O)N4CC[C@H](O)C4)cc3C(F)(F)F)C2=O)n1 [ACS-4, (S)-2-(6-(Ethylamino)-4-(1-methyl-4-(4-methyl-4H-1,2,4-triazol-3-yl)-1H-pyrazol-5-yl)pyridin-2-yl)-6-(3-hydroxypyrrolidine-1-carbonyl)-4-(trifluoromethyl)isoindolin-1-one] | ≤ 200
16 | CCNc1cc(-c2c(-c3nncn3C)cnn2C)cc(N2Cc3c(cc(C(=O)N4CC[C@@H](O)C4)cc3C(F)(F)F)C2=O)n1 [ACT-2, (R)-2-(6-(Ethylamino)-4-(1-methyl-4-(4-methyl-4H-1,2,4-triazol-3-yl)-1H-pyrazol-5-yl)pyridin-2-yl)-6-(3-hydroxypyrrolidine-1-carbonyl)-4-(trifluoromethyl)isoindolin-1-one] | ≤ 200
17 | Cn1cnnc1-c1ccccc1-c1cc(N2Cc3c(cccc3C(F)(F)F)C2=O)nc(C2(CO)CC2)c1 [ACU-2, 2-(6-(1-(Hydroxymethyl)cyclopropyl)-4-(2-(4-methyl-4H-1,2,4-triazol-3-yl)phenyl)pyridin-2-yl)-4-(trifluoromethyl)isoindolin-1-one] | ≤ 200
18 | CCNc1cc(-c2c(-c3nncn3C)cnn2C)cc(N2Cc3c(cc(OC4CN(C)C4)cc3C(F)(F)F)C2=O)n1 [ACV-2, 2-(6-(Ethylamino)-4-(1-methyl-4-(4-methyl-4H-1,2,4-triazol-3-yl)-1H-pyrazol-5-yl)pyridin-2-yl)-6-((1-methylazetidin-3-yl)oxy)-4-(trifluoromethyl)isoindolin-1-one] | ≤ 200
19 | CCNc1cc(-c2c(-c3nncn3C)cnn2C)cc(N2Cc3c(cc(COC(C)C)cc3C(F)(F)F)C2=O)n1 [ACW-1, 2-(6-(Ethylamino)-4-(1-methyl-4-(4-methyl-4H-1,2,4-triazol-3-yl)-1H-pyrazol-5-yl)pyridin-2-yl)-6-(isopropoxymethyl)-4-(trifluoromethyl)isoindolin-1-one] | ≤ 200
20 | CCNc1cc(-c2ccccc2-c2nncn2C)cc(N2Cc3c(cc(CO)cc3C(F)(F)F)C2=O)n1 [AD-3, 2-(6-(Ethylamino)-4-(2-(4-methyl-4H-1,2,4-triazol-3-yl)phenyl)pyridin-2-yl)-6-(hydroxymethyl)-4-(trifluoromethyl)isoindolin-1-one] | ≤ 200
21 | CN(C)c1cc(-c2ccccc2-c2nncn2C)cc(N2Cc3c(cc(CO)cc3C(F)(F)F)C2=O)n1 [AD-4, 2-(6-(dimethylamino)-4-(2-(4-methyl-4H-1,2,4-triazol-3-yl)phenyl)pyridin-2-yl)-6-(hydroxymethyl)-4-(trifluoromethyl)isoindolin-1-one] | 200 to 1000
22 | CCNc1cc(-c2ccccc2-c2nncn2C)cc(N2Cc3c(cc(CN4CCC[C@@H](C)C4)cc3C(F)(F)F)C2=O)n1 [AE-2, (R)-2-(6-(Ethylamino)-4-(2-(4-methyl-4H-1,2,4-triazol-3-yl)phenyl)pyridin-2-yl)-6-((3-methylpiperidin-1-yl)methyl)-4-(trifluoromethyl)isoindolin-1-one] | ≤ 200
23 | CCNc1cc(-c2ccccc2-c2nncn2C)cc(N2Cc3c(cc(CN4CCC[C@H](C)C4)cc3C(F)(F)F)C2=O)n1 [AF-1, (S)-2-(6-(Ethylamino)-4-(2-(4-methyl-4H-1,2,4-triazol-3-yl)phenyl)pyridine-2-yl)6-((3-methylpiperidin-1-yl)methyl)-4-(trifluoromethyl)isoindolin-1-one] | ≤ 200
